According to US8871799B2, “Iminochromene anti-viral compounds” (priority 2010, dated 2014):

Assays:
HCV2a virus = assay: HCV IF antiviral assay (HCV inhibition assay); format: cell-based, Hepatitis C virus; details: for Number HCV infected cells: Huh7 cells, 80 infected cells at 0 μM
HCV = HCV RNA release by Huh7 cells; format: cell-based, Hepatitis C virus; details: control level 100% in the absence of drug
[1] = tested on: Murine Encephalomyocarditis virus (EMCV); assay: EMCV antiviral assay (MTS cell viability); details: Huh7 cells, 250 pfu EMCV, negative controls ~0.7-0.75

Compound | Change in number of HCV-infected cells with increasing concentration (HCV2a virus; 0, 5 μM, 10 μM and 50 μM) | Number HCV infected cells (HCV2a virus; KIN700 added 5 μM) | Number HCV infected cells (HCV2a virus; KIN700 added 10 μM) | Number HCV infected cells (HCV2a virus; KIN700 added 50 μM) | Level of HCV RNA in supernatant (HCV; KIN700 at 10 μM) | Cell viability post-infection ([1]; 5 μM) | Cell viability post-infection ([1]; 10 μM) | Cell viability post-infection ([1]; 20 μM) | HCV infection with positive control treatment (HCV2a virus; positive control, representative experiments) | Level of HCV RNA in supernatant (HCV; Interferon sample)
COc1ccc(/N=c2\oc3ccc(Cl)cc3cc2C(N)=S)cc1 [KIN700] | dose-dependent decrease | 25 | 13 | 13 | less than 10% | ~0.8 | ~1.5 | ~1.7 | – | –
interferon [reference compound] | – | – | – | – | – | – | – | – | completely blocks HCV infection | less than 5%
